This note sets out measurements from patent US20040063681A1, “Methods for using gold (III) complexes as anti-tumor and anti-HIV agents” (priority 2002, published 2004).

The data set can be described thus: Electrochemical measurements (cyclic voltammetry). The class given is physicochemical. On the procedure: Electrochemical measurements. Electrochemical measurements were performed at room temperature after purging with nitrogen using 0.1 M tetrabutylammonium hexafluorophosphate (TBAP)/acetonitrile as supporting electrolyte. The working electrode was a glassy carbon (Atomergic Chemetal V25, geometric area of 0.35 cm^2) electrode and the counter electrode was platinum gauze. A nonaqueous Ag/AgNO3 (0.1 M in acetonitrile) reference electrode was contained in a separate compartment connected to the test solution via fine sintered glass disks. The ferrocenium/ferrocene couple was used as the internal standard. The redox properties of the gold(III) porphyrin complexes in non-aqueous medium (CH2Cl2 with 0.1 M nBu4NPF6) have been studied by cyclic voltammetry with glassy carbon and platinum as the working and counter electrodes, respectively. […] The effect of para-substitution on the electrochemical potentials has been examined by Hammett correlation analysis.

The mark [1] stands for this setting: cyclic voltammetry, 0.1 M nBu4NPF6, glassy carbon, vs Cp2Fe^+/0.

With `C1=Cc2nc1c(-c1ccccc1)c1ccc([n-]1)c(-c1ccccc1)c1nc(c(-c3ccccc3)c3ccc([n-]3)c2-c2ccccc2)C=C1.[Au+3].[Cl-]` [Complex 1a], under setting [1], the “Couple I (first reduction couple)” value is recorded as −1.00 V and the “Couple II (second reduction couple)” value is −1.48 V. In addition, under “relative to Y=H (Complex 1a)”, the “ΔE1o (E^0Y − E^0H), couple I” value is reported as 0 V and the “ΔE2^0 (E^0Y − E^0H), couple II” value was determined as 0 V.
